According to patent publication US6656937B2, “Substituted glutarimides and their use as inhibitors of IL-12 production” (Gruenenthal, GmbH, priority 2000, dated 2003):
Structures can show the parent of a compound that is named as a salt.

Row | melting point | Structure (SMILES)
1 | 155 to 156 °C (dec.) | NC(=O)c1ccccc1CN[C@H]1CCC(=O)NC1=O (as salt: hydrobromid) [Example 8.3, 2-[(3S)-(2,6-dioxopiperidin-3-ylamino)methyl]benzamide]
2 | 241 to 242 °C | NNC(=O)c1ccccc1CN[C@H]1CCC(=O)NC1=O (as salt: hydrobromid) [Example 8.6, 2-[(3S)-(2,6-dioxopiperidin-3-ylamino)methyl]benzoic acid hydrazide]
3 | 136 to 138 °C | O=C1CC[C@H](NCc2ccccc2C(=O)Nc2ccccc2)C(=O)N1 (as salt: hydrobromid) [Example 8.7, 2-[(3S)-(2,6-dioxopiperidin-3-ylamino)methyl]-N-phenylbenzamide]
4 | 232 to 233 °C | NC(=O)c1ccccc1CN[C@@H]1CCC(=O)NC1=O (as salt: hydrobromid) [Example 8.12, 2-[(3R)-(2,6-dioxopiperidin-3-ylamino)methyl]benzamide]
5 | 149 to 150 °C | O=C1CCC(CNc2ccc(Br)cc2)C(=O)N1 (stereo not drawn) [Example 11.1, 3-[(4-bromophenylamino)methyl]piperidine-2,6-dione]
6 | 135 to 138 °C | O=C1CCC(CNc2cccc(C(F)(F)F)c2)C(=O)N1 (stereo not drawn) [Example 11.2, 3-[(3-trifluoromethylphenylamino)methyl]piperidine-2,6-dione]
7 | 145 to 148 °C | O=C1CCC(CNc2cccc3ccccc23)C(=O)N1 (stereo not drawn) [Example 11.3, 3-(naphth-1-ylaminomethyl) piperidine-2,6-dione]
8 | 135 to 138 °C | O=C1CCC(CNc2ccc(-c3ccccc3)cc2)C(=O)N1 (stereo not drawn) [Example 11.4, 3-(biphenyl-4-ylaminomethyl) piperidine-2,6-dione]
9 | 221 to 225 °C | O=C1CCC(CNc2ccc(C(c3ccccc3)(c3ccccc3)c3ccccc3)cc2)C(=O)N1 (stereo not drawn) [Example 11.6, 3-[(4-tritylphenylamino)methyl]piperidine-2,6-dione]
10 | 129 to 132 °C | CC(=O)c1cccc(NCC2CCC(=O)NC2=O)c1 (stereo not drawn) [Example 11.9, 3-[(3-acetylphenylamino)methyl]piperidine-2,6-dione]
11 | 132 to 134 °C | CN(CC1CCC(=O)NC1=O)c1ccccc1 (stereo not drawn) [Example 11.10, 3-[(N-methyl-N-phenylamino)methyl]piperidine-2,6-dione]
12 | 131 to 134 °C | COc1ccc(NCC2CCC(=O)NC2=O)cc1 (stereo not drawn) [Example 11.13, 3-[(4-methoxyphenylamino)methyl]piperidine-2,6-dione]

The next lines start with the compound.

Row | Structure (SMILES) | melting point
13 | O=C1CCC(NCc2ccccc2C(F)(F)F)C(=O)N1 (racemic) (as salt: hydrochloride) [Example 2.1, 3-(2-trifluoromethylbenzylamino) piperidine-2,6-dione] | > 250 °C (dec.)
14 | COc1ccc(CNC2CCC(=O)NC2=O)c(OC)c1 (racemic) (as salt: hydrochloride) [Example 2.2, 3-(2,4-dimethoxybenzylamino) piperidine-2,6-dione] | 214 °C (dec.)
15 | O=C1CCC(NCc2c(F)cccc2F)C(=O)N1 (racemic) (as salt: hydrochloride) [Example 2.3, 3-(2,6-difluorobenzylamino) piperidine-2,6-dione] | 208 to 215 °C (dec.)
16 | O=C1CCC(NCc2cc(F)ccc2F)C(=O)N1 (racemic) (as salt: hydrochloride) [Example 2.4, 3-(2,5-difluorobenzylamino) piperidine-2,6-dione] | 208 °C (dec.)
17 | O=C1CCC(NCc2cc(F)cc(F)c2)C(=O)N1 (racemic) (as salt: hydrochloride) [Example 2.5, 3-(3,5-difluorobenzylamino) piperidine-2,6-dione] | 230 to 236 °C (dec.)
18 | O=C1CCC(NCc2cccc3ccccc23)C(=O)N1 (racemic) (as salt: hydrochloride) [Example 2.6, 3-[(naphth-1-ylmethyl)amino]piperidine-2,6-dione] | 188 °C (dec.)
19 | O=C1CCC(NCc2cccc(F)c2F)C(=O)N1 (racemic) (as salt: hydrochloride) [Example 2.7, 3-(2,3-difluorobenzylamino) piperidine-2,6-dione] | 206 to 212 °C (dec.)
20 | O=C1CCC(NCc2cccc(OC(F)(F)F)c2)C(=O)N1 (racemic) (as salt: hydrochloride) [Example 2.11, 3-(3-trifluoromethoxybenzylamino) piperidine-2,6-dione] | 199 to 201 °C
21 | O=C1CCC(NCc2ccc(F)cc2Cl)C(=O)N1 (racemic) (as salt: hydrochloride) [Example 2.13, 3-(2-chloro-4-fluorobenzylamino) piperidine-2,6-dione] | 241 to 242 °C
22 | Cc1cccc(Cl)c1CNC1CCC(=O)NC1=O (racemic) (as salt: hydrochloride) [Example 2.15, 3-(2-chloro-6-methylbenzylamino) piperidine-2,6-dione] | 238 to 240 °C
23 | Cc1ccccc1CNC1CCC(=O)NC1=O (racemic) (as salt: hydrochloride) [Example 2.16, 3-(2-methylbenzylamino) piperidine-2,6-dione] | 235 to 240 °C
24 | O=C1CCC(NCc2cc(Cl)cc(Cl)c2)C(=O)N1 (racemic) (as salt: hydrochloride) [Example 2.17, 3-(3,5-dichlorobenzylamino) piperidine-2,6-dione] | 234 to 238 °C
25 | O=C1CCC(NCc2cc(F)cc(C(F)(F)F)c2)C(=O)N1 (racemic) (as salt: hydrochloride) [Example 2.18, 3-[3-fluoro-5-(trifluoromethyl)benzylamino]piperidine-2,6-dione] | 241 to 243 °C
26 | O=C1CCC(NCc2cccc(F)c2)C(=O)N1 (racemic) (as salt: hydrochloride) [Example 2.19, 3-(3-fluorobenzylamino) piperidine-2,6-dione] | 231 to 235 °C
27 | Cc1cccc(CNC2CCC(=O)NC2=O)c1 (racemic) (as salt: hydrochloride) [Example 2.20, 3-(3-methylbenzylamino) piperidine-2,6-dione] | 240 to 242 °C
28 | O=C1CCC(NCc2ccc(C(F)(F)F)cc2)C(=O)N1 (racemic) (as salt: hydrochloride) [Example 2.21, 3-(4-trifluoromethylbenzylamino) piperidine-2,6-dione] | 252 to 255 °C
29 | O=C1CCC(NCc2ccc(F)cc2)C(=O)N1 (racemic) (as salt: hydrochloride) [Example 2.23, 3-(4-fluorobenzylamino) piperidine-2,6-dione] | 241 to 242 °C

Row | Structure (SMILES) | melting point
30 | O=C1CCC(NCc2cccc(Cl)c2)C(=O)N1 (racemic) (as salt: hydrochloride) [Example 2.26, 3-(3-chlorobenzylamino) piperidine-2,6-dione] | 237 to 238 °C
31 | O=C1CCC(NCc2ccc(Cl)cc2Cl)C(=O)N1 (racemic) (as salt: hydrochloride) [Example 2.28, 3-(2,4-dichlorobenzylamino) piperidine-2,6-dione] | 240 to 242 °C
32 | O=C1CCC(NCc2ccccc2F)C(=O)N1 (racemic) (as salt: hydrochloride) [Example 2.29, 3-(2-fluorobenzylamino) piperidine-2,6-dione] | 245 to 247 °C
33 | O=C1CCC(NCc2ccccc2Br)C(=O)N1 (racemic) (as salt: hydrochloride) [Example 2.30, 3-(2-bromobenzylamino) piperidine-2,6-dione] | 244 to 246 °C
34 | O=C1CCC(NCc2cccc(Cl)c2Cl)C(=O)N1 (racemic) (as salt: hydrochloride) [Example 2.32, 3-(2,3-dichlorobenzylamino) piperidine-2,6-dione] | 246 to 248 °C
35 | O=C1CCC(NCc2ccc(Cl)c(Cl)c2)C(=O)N1 (racemic) (as salt: hydrochloride) [Example 2.33, 3-(3,4-dichlorobenzylamino) piperidine-2,6-dione] | 252 to 254 °C
36 | O=C1CCC(NCc2cc(C(F)(F)F)cc(C(F)(F)F)c2)C(=O)N1 (racemic) (as salt: hydrochloride) [Example 2.34, 3-[3,5-bis(trifluoromethyl)benzylamino]piperidine-2,6-dione] | 263 to 265 °C
37 | O=C1CCC(NCc2cccc(Br)c2)C(=O)N1 (racemic) (as salt: hydrochloride) [Example 2.35, 3-(3-bromobenzylamino) piperidine-2,6-dione] | 229 to 232 °C
38 | O=C1CCC(NCc2ccc(OC(F)(F)F)cc2)C(=O)N1 (racemic) (as salt: hydrochloride) [Example 2.36, 3-(4-trifluoromethoxybenzylamino) piperidine-2,6-dione] | 253 to 255 °C
39 | O=C1CCC(NCc2ccc(Cl)cc2)C(=O)N1 (racemic) (as salt: hydrochloride) [Example 2.37, 3-(4-chlorobenzylamino) piperidine-2,6-dione] | 262 to 265 °C
40 | Cc1ccc(CNC2CCC(=O)NC2=O)cc1 (racemic) (as salt: hydrochloride) [Example 2.38, 3-(4-methylbenzylamino) piperidine-2,6-dione] | 256 °C (dec.)
41 | CCOc1ccccc1CNC1CCC(=O)NC1=O (racemic) (as salt: hydrochloride) [Example 2.39, 3-(2-ethoxybenzylamino) piperidine-2,6-dione] | 208 to 212 °C
42 | O=C1CCC(NCc2cc(Cl)ccc2Cl)C(=O)N1 (racemic) (as salt: hydrochloride) [Example 2.40, 3-(2,5-dichlorobenzylamino) piperidine-2,6-dione] | 242 to 246 °C
43 | COc1cccc(CNC2CCC(=O)NC2=O)c1 (racemic) (as salt: hydrochloride) [Example 2.41, 3-(3-methoxybenzylamino) piperidine-2,6-dione] | 217 to 219 °C
44 | O=C1CCC(NCc2ccc3ccccc3c2)C(=O)N1 (racemic) [Example 2.12, 3-[(naphth-2-ylmethyl)amino]piperidine-2,6-dione] | 120 to 125 °C (dec.)
45 | CN(Cc1cccc2ccccc12)C1CCC(=O)NC1=O (racemic) [Example 4.5, 3-(methylnaphth-1-ylmethylamino) piperidine-2,6-dione] | 157 to 162 °C
